Results on 13 compounds are retold here after PubChem BioAssay (NCI).

Some test systems named below: ACHN renal; COLO 205 colon; HOP-92 NSCLC; OVCAR-3 ovarian; SF-539 CNS; SK-MEL-2 melanoma; SK-OV-3 ovarian; SNB-19 CNS; SW-620 colon.
What all share (test): NCI tumour cell line growth inhibition, 48 h

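How tested: cells in 96-well plates exposed to compound for 48 hours at five concentrations. GI50: concentration for 50% inhibition of growth. TGI: total growth inhibition.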

On to `CN(C)CN1C(=O)S/C(=C2\C(=O)N(CN(C)C)c3ccccc32)C1=O`, for which the TGI in the experiment with ACHN renal, in the experiment with COLO 205 colon, in the experiment on HOP-92 NSCLC, in the experiment with OVCAR-3 ovarian, in the experiment with SF-539 CNS and with SK-MEL-2 melanoma was > 100 µM in each case. The TGI in the experiment on SK-OV-3 ovarian is > 100 µM; with SNB-19 CNS, > 100 µM; with SW-620 colon it was 93.1 µM.
`O=C(O)C(Cc1ccc(O)c([N+](=O)[O-])c1)N1C(=O)c2ccccc2C1=O` (centres undefined): the TGI in the experiment on ACHN renal, in the experiment with COLO 205 colon, in the experiment on HOP-92 NSCLC, in the experiment with OVCAR-3 ovarian, with SF-539 CNS and with SK-MEL-2 melanoma was > 100 µM each time. Moreover, the TGI in the experiment with SK-OV-3 ovarian, in the experiment on SNB-19 CNS and in the experiment on SW-620 colon was > 100 µM in each case.
For `C=C(CNCCO)[C@@H]1CC[C@]2(CO)CC[C@]3(C)[C@H](CC[C@@H]4[C@@]5(C)CCC(NCCc6ccc(O)cc6)C(C)(C)[C@@H]5CC[C@]43C)[C@@H]12` (some centres undefined), the GI50 is 1.69 µM in the experiment with ACHN renal; 0.194 µM in the experiment with COLO 205 colon; 0.822 µM in the experiment with HOP-92 NSCLC; 1.82 µM in the experiment with OVCAR-3 ovarian; 1.52 µM with SF-539 CNS; 1.66 µM with SK-MEL-2 melanoma. The GI50 with SK-OV-3 ovarian was 1.7 µM; with SNB-19 CNS, 1.6 µM; with SW-620 colon, 0.468 µM. For the same compound, the TGI in the experiment with ACHN renal was determined as 3.08 µM; in the experiment on COLO 205 colon, 0.427 µM; in the experiment with HOP-92 NSCLC it was 2.29 µM; in the experiment on OVCAR-3 ovarian, 3.73 µM; with SF-539 CNS, 2.91 µM; with SK-MEL-2 melanoma, 3.18 µM. For the same compound, the TGI amounted to 3.23 µM with SK-OV-3 ovarian, 3.03 µM with SNB-19 CNS and 1.85 µM in the experiment with SW-620 colon.
On to `O=c1oc2c3ccc4ccccc4c3n(Cc3nc4ccccc4[nH]3)c2c2ccccc12`, for which the TGI in the experiment on ACHN renal is > 100 µM; in the experiment on COLO 205 colon, > 100 µM; in the experiment with HOP-92 NSCLC it was > 100 µM; with OVCAR-3 ovarian, > 72.8 µM; with SF-539 CNS it was > 26.2 µM; in the experiment with SK-MEL-2 melanoma, > 100 µM. Also, the TGI in the experiment on SK-OV-3 ovarian, in the experiment with SNB-19 CNS and with SW-620 colon was > 100 µM each time.
In the case of `C=C1C(=O)O[C@H]2[C@H]1CC/C(COC(=O)c1ccc(C(=O)O)s1)=C\CC[C@@]1(C)O[C@@H]21`, the GI50 in the experiment with ACHN renal was 1.63 µM; in the experiment with COLO 205 colon, 2.01 µM; in the experiment with HOP-92 NSCLC, 1.61 µM; in the experiment on OVCAR-3 ovarian, 1.43 µM; in the experiment on SF-539 CNS, 1.62 µM; with SK-MEL-2 melanoma, 2.29 µM. For the same compound, the GI50 was 12.3 µM in the experiment on SK-OV-3 ovarian, 3.17 µM in the experiment on SNB-19 CNS and 1.61 µM in the experiment with SW-620 colon. In addition, the TGI in the experiment on ACHN renal is 3.02 µM; in the experiment with COLO 205 colon, 3.92 µM; with HOP-92 NSCLC, 3.45 µM; with OVCAR-3 ovarian it was 2.98 µM; in the experiment with SF-539 CNS, 3.04 µM; in the experiment on SK-MEL-2 melanoma, 5.22 µM. The TGI in the experiment with SK-OV-3 ovarian came to 25.1 µM; in the experiment with SNB-19 CNS it was 11.6 µM; with SW-620 colon, 3.79 µM.
Take `O=C1Cc2c(-c3ccccc3)cc(-c3cccc(Cl)c3)nc2-c2ccccc2N1`: in the experiment with ACHN renal, the GI50 was 1.15 µM. For the same compound, the TGI is 5.63 µM in the experiment on ACHN renal; > 58.3 µM in the experiment on COLO 205 colon; 5.42 µM in the experiment with HOP-92 NSCLC; 6.84 µM in the experiment on OVCAR-3 ovarian; > 29.9 µM with SF-539 CNS; 24.4 µM in the experiment on SK-MEL-2 melanoma. The figures for the TGI with SK-OV-3 ovarian, with SNB-19 CNS and in the experiment with SW-620 colon were 9.49 µM, 3.59 µM and > 100 µM, respectively.
Consider `CC1(C)C(=O)/C(=C\c2ccco2)C[C@]2(C)[C@H]3CC=C4[C@@H]5C[C@](C)(C(=O)O)CC[C@]5(C)CC[C@@]4(C)[C@]3(C)CC[C@@H]12`, for which the GI50 was 6.9 µM in the experiment with ACHN renal; 9.31 µM in the experiment with COLO 205 colon; 3.83 µM in the experiment on HOP-92 NSCLC; 10.9 µM in the experiment with OVCAR-3 ovarian; 13.2 µM in the experiment with SF-539 CNS; 15.1 µM in the experiment on SK-MEL-2 melanoma. For the same compound, the results for the GI50 in the experiment on SK-OV-3 ovarian, in the experiment on SNB-19 CNS and in the experiment on SW-620 colon were 14.4 µM, 10.2 µM and 10.2 µM, respectively. Also, the TGI with ACHN renal came out at 21.1 µM; in the experiment on COLO 205 colon, 25.5 µM; in the experiment with HOP-92 NSCLC it was 17 µM; with OVCAR-3 ovarian, 26.1 µM; with SF-539 CNS it was 27.3 µM; in the experiment with SK-MEL-2 melanoma it was 36.8 µM. The results for the TGI in the experiment on SK-OV-3 ovarian, in the experiment on SNB-19 CNS and in the experiment with SW-620 colon were 29.3 µM, 22.7 µM and 25.9 µM, respectively.
Regarding `CCc1ccc(C2=C(O)C(=O)C(c3ccc(CC)cc3)=C(O)C2=O)cc1`, the GI50 with ACHN renal is 2.01 µM; in the experiment on COLO 205 colon, 1.69 µM; in the experiment on HOP-92 NSCLC, 1.24 µM; with OVCAR-3 ovarian, 1.57 µM; with SF-539 CNS, 1.8 µM; in the experiment with SK-MEL-2 melanoma, 1.18 µM. Moreover, the GI50 is 2.05 µM in the experiment on SK-OV-3 ovarian, 2.17 µM in the experiment on SNB-19 CNS and 2.87 µM with SW-620 colon. The TGI in the experiment on ACHN renal stood at 6.28 µM; in the experiment on COLO 205 colon, 5.36 µM; in the experiment on HOP-92 NSCLC, 4.33 µM; with OVCAR-3 ovarian, 3.13 µM; in the experiment on SF-539 CNS it was 4.45 µM; in the experiment on SK-MEL-2 melanoma, 3.35 µM. The figures for the TGI with SK-OV-3 ovarian, in the experiment with SNB-19 CNS and in the experiment on SW-620 colon were 5.66 µM, 8.03 µM and 10.4 µM, respectively.
For the compound `CC1=CC[C@@H]2C(C)(C)[C@@H](O)CC[C@@]2(C)[C@@H]1COc1ccc2ccc(=O)oc2c1`, the GI50 with ACHN renal is 5.11 µM; in the experiment with COLO 205 colon it was 5.35 µM; with HOP-92 NSCLC it was 3.83 µM; in the experiment on OVCAR-3 ovarian, 4.34 µM; with SF-539 CNS, 12.3 µM; with SK-MEL-2 melanoma it was 5.49 µM. For the same compound, the GI50 in the experiment with SK-OV-3 ovarian is 15.5 µM; in the experiment with SNB-19 CNS, 14.3 µM; in the experiment with SW-620 colon, 9.94 µM. For the same compound, the TGI in the experiment on ACHN renal amounted to 19.6 µM; in the experiment with COLO 205 colon, 23.6 µM; with HOP-92 NSCLC, 18.2 µM; in the experiment on OVCAR-3 ovarian, 16 µM; in the experiment with SF-539 CNS it was 28.5 µM; with SK-MEL-2 melanoma it was 21.9 µM. For the same compound, the values for the TGI with SK-OV-3 ovarian, with SNB-19 CNS and in the experiment on SW-620 colon were 32.3 µM, 42.9 µM and 27.2 µM, respectively.
Consider `O=c1c(OC/C(=N/O)c2ccccc2)c(-c2ccccc2)oc2ccccc12`, for which the GI50 in the experiment with ACHN renal is 10.5 µM; with COLO 205 colon, 14.8 µM; with HOP-92 NSCLC, 14.3 µM; in the experiment on OVCAR-3 ovarian, 8.06 µM; in the experiment on SF-539 CNS, 12.5 µM; in the experiment with SK-MEL-2 melanoma, 16.4 µM. Moreover, the GI50 is 20.3 µM with SK-OV-3 ovarian, 15.9 µM in the experiment on SNB-19 CNS and 11.4 µM with SW-620 colon. Besides, the TGI in the experiment on ACHN renal was 28 µM; in the experiment with COLO 205 colon it was 42.9 µM; in the experiment on HOP-92 NSCLC, > 50 µM; in the experiment on OVCAR-3 ovarian, 20.1 µM; with SF-539 CNS it was 28 µM; with SK-MEL-2 melanoma, > 50 µM. Further, the TGI is > 50 µM in the experiment with SK-OV-3 ovarian, > 50 µM in the experiment on SNB-19 CNS and 25.4 µM with SW-620 colon.
Regarding `Cc1cc(O)cc(C)c1/C=C/c1cncc(C(=O)N(C)C)c1`, the GI50 in the experiment with ACHN renal, in the experiment on COLO 205 colon, in the experiment with HOP-92 NSCLC, in the experiment on OVCAR-3 ovarian, in the experiment with SF-539 CNS and in the experiment on SK-MEL-2 melanoma was > 25 µM in each case. The GI50 in the experiment on SK-OV-3 ovarian, in the experiment with SNB-19 CNS and in the experiment on SW-620 colon was > 25 µM in each case. Further, the TGI in the experiment with ACHN renal, in the experiment with COLO 205 colon, with HOP-92 NSCLC, in the experiment with OVCAR-3 ovarian, in the experiment on SF-539 CNS and in the experiment on SK-MEL-2 melanoma was > 25 µM in each case. In addition, the TGI with SK-OV-3 ovarian, in the experiment with SNB-19 CNS and in the experiment on SW-620 colon was > 25 µM each time.
Consider `ClCCn1cnc2c(SCc3ccccc3)ncnc21`, for which the GI50 in the experiment with ACHN renal is 4.99 µM; in the experiment with COLO 205 colon, 1.79 µM; with HOP-92 NSCLC it was 16.3 µM; in the experiment with OVCAR-3 ovarian, 7.45 µM; in the experiment on SF-539 CNS, 8.77 µM; in the experiment with SK-MEL-2 melanoma, 2.24 µM. For the same compound, the GI50 in the experiment on SK-OV-3 ovarian is 8.3 µM; with SNB-19 CNS it was 2.61 µM; in the experiment on SW-620 colon, 3.14 µM. The TGI in the experiment with ACHN renal, in the experiment with COLO 205 colon, with HOP-92 NSCLC, in the experiment with OVCAR-3 ovarian, in the experiment with SF-539 CNS and in the experiment on SK-MEL-2 melanoma was > 100 µM throughout. In addition, the TGI with SK-OV-3 ovarian, in the experiment on SNB-19 CNS and in the experiment on SW-620 colon was > 100 µM throughout.
Turning to `OCC1OC(N2C=C(c3nc4ccccc4s3)C3C=CC=CC32)C(O)C1O` (centres undefined), the GI50 was 4.36 µM in the experiment with ACHN renal; 14.1 µM in the experiment with COLO 205 colon; 6.62 µM in the experiment with HOP-92 NSCLC; 13.4 µM with OVCAR-3 ovarian; 8.08 µM in the experiment on SF-539 CNS; 29.7 µM in the experiment with SK-MEL-2 melanoma. Moreover, the GI50 with SK-OV-3 ovarian is 28.2 µM; in the experiment with SNB-19 CNS, 18.9 µM; in the experiment on SW-620 colon it was 9.82 µM. The TGI in the experiment with ACHN renal was 12.4 µM; in the experiment on COLO 205 colon, 49.6 µM; in the experiment with HOP-92 NSCLC, 20.5 µM; in the experiment with OVCAR-3 ovarian it was 36.6 µM; in the experiment with SF-539 CNS, 17.8 µM; in the experiment with SK-MEL-2 melanoma, > 50 µM. The TGI in the experiment on SK-OV-3 ovarian, with SNB-19 CNS and with SW-620 colon was > 50 µM in each case.
